In assay [1] the target is T1, RNA-binding protein pos-1 (Caenorhabditis elegans, UniProt G5EF15).
T1 sequence (G5EF15 whole entry): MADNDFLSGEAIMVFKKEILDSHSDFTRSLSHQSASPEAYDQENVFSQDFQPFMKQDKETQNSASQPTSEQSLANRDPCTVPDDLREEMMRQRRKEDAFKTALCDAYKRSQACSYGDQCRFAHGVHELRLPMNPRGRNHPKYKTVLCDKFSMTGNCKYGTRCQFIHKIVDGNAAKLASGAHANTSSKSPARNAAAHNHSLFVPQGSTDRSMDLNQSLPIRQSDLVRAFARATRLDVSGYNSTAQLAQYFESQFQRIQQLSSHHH
Put plainly: disruptors of C. elegans POS-1 RNA interaction – biochemical, fluorescence polarization, dose response (AID 1964).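 Further: purified POS-1 fused to maltose binding protein made in E. coli; potency of compounds blocking POS-1 binding to fluorescent RNA.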 In general terms: Fluorescence polarisation rises when a labelled molecule tumbles more slowly, as on binding a larger partner.

The target in assay [2] is T2, Zinc finger protein mex-5 (Caenorhabditis elegans, UniProt Q9XUB2).
T2 sequence (Q9XUB2 whole entry): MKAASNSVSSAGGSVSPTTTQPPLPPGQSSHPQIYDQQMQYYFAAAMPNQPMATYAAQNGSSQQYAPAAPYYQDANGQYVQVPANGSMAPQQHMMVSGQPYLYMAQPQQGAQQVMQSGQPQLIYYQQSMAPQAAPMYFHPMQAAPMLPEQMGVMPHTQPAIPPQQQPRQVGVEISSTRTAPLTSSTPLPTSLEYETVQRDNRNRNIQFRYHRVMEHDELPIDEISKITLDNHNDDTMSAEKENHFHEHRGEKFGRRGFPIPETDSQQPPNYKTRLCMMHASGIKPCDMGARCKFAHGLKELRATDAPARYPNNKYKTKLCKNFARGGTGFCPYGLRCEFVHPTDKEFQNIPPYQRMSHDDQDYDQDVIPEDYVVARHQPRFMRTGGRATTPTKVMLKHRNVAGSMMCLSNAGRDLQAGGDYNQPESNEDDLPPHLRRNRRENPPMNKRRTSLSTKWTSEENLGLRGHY
Put plainly: potency of MEX-5 RNA-binding blockers – biochemical, C. elegans, fluorescence polarization, dose response (AID 1960).

Assay [3] concerns the target Ephrin type-A receptor 4 (Mus musculus, UniProt Q03137). The assay is described as follows: EphA4 ligand-binding antagonists – biochemical, colorimetric, mouse EphA4, primary screen (AID 689). The assay is classed as functional.
Assay [4] addresses ORF 73 (Human herpesvirus 8, UniProt O40947). Put plainly: KSHV LANA DNA-binding disruption – biochemical, fluorescence polarization, cherry-picked samples, dose response (AID 504725).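 Further: fluorescence polarization of a labeled DNA duplex reporting LANA DNA binding; potency is for inhibitors that block LANA binding to the DNA.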 Also noted: species or system Human gammaherpesvirus 8.
For assay [5], the target named is T3, Botulinum neurotoxin type A (Clostridium botulinum (strain Hall / ATCC 3502 / NCTC 13319 / Type A), UniProt P0DPI1). Put plainly: High-throughput multiplex microsphere dose response for inhibitors of toxin protease, specifically Botulinum neurotoxin light chain A protease, compounds from Cherry Pick 01. As to conditions: read-out: EC50_MICROM. The assay is classed as functional.

Assay [6] addresses T3, Botulinum neurotoxin type A. Put plainly: High-throughput multiplex microsphere dose response for inhibitors of toxin protease, specifically Botulinum neurotoxin light chain A protease, compounds from Powder Set 01. It is filed as functional, Clostridium botulinum A str. ATCC 3502. As to conditions: read-out: EC50_MICROM.
Assay [7] has as its target Botulinum neurotoxin type F (Clostridium botulinum, UniProt P30996). Put plainly: High-throughput multiplex microsphere dose response for inhibitors of toxin protease, specifically Botulinum neurotoxin light chain F protease, compounds from Powder Set 01. As to conditions: read-out: EC50_MICROM. It is filed as functional, Clostridium botulinum Bf.
Assay [8] has as its target Lethal factor (Bacillus anthracis, UniProt P15917). Put plainly: High-throughput multiplex microsphere dose response for inhibitors of toxin protease, specifically Lethal Factor protease, compounds from Powder Set 01. The assay is classed as functional, Bacillus anthracis str. A2012. The conditions noted are these: read-out: EC50_MICROM.
The target of assay [9] is T4, Intestinal-type alkaline phosphatase (Homo sapiens, UniProt P09923). Put plainly: Dose Response confirmation of uHTS hits from a small molecule inhibitors of human intestinal alkaline phosphatase via a luminescent assay. [Related pubchem assays (depositor defined):AID2544, AID2574]. It is filed as functional.
For assay [10], the target named is T4, Intestinal-type alkaline phosphatase. Put plainly: human intestinal alkaline phosphatase activators, dose response, biochemical, luminescence, uHTS hits (AID 463120). It is filed as functional.
Assay [11] deals with Wee1-like protein kinase (Homo sapiens, UniProt P30291). The assay is described as follows: HeLa cell cycle G2/M accumulation – FACS, mechanism study for Wee1 degradation inhibitor project, late-stage follow-up, panel member Wee1 Degradation (AID 2088).
The target in assay [12] is G2/mitotic-specific cyclin-B1 (Homo sapiens, UniProt P14635). Put plainly: HeLa cell cycle G2/M accumulation – FACS, mechanism study for Wee1 degradation inhibitor project, late-stage follow-up, panel member Cyclin B Degradation (AID 2088).
For assay [13], the target named is Voltage-gated N-type calcium channel alpha-1B subunit/Amyloid beta A4 precursor protein-binding family A member 1 (Homo sapiens, UniProt Q00975+Q02410). Put plainly: disruptors of Mint-PDZ/N-type channel peptide interaction – biochemical, HTRF, set 2, SAR follow-up (AID 434980). It is filed as functional. For orientation: Time-resolved FRET reads energy transfer from a long-lived donor to a nearby acceptor.

A word on the IC50: it is the concentration at which inhibition is half-maximal. As a reminder, the AC50 is the concentration giving half of the maximal activity seen.

Structures are written as SMILES. Activity calls are given as the source filed them. Unless noted, the calls are words filed in the database; no cut-off is given here.

T4 sequence (P09923 whole entry): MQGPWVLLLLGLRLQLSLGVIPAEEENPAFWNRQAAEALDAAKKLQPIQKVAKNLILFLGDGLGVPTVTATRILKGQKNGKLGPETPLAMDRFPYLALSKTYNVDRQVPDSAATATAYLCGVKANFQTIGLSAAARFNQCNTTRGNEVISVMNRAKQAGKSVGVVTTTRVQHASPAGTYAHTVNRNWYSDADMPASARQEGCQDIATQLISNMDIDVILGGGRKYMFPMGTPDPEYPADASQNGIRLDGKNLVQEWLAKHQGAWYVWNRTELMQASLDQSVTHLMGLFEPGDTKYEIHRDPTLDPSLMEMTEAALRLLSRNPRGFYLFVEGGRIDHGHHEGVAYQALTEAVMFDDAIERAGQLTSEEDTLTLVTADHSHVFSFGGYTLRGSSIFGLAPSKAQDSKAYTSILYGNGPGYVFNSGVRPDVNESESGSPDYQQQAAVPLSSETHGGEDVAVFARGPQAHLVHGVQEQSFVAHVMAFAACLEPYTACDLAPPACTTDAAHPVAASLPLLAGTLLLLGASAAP
T3 sequence (P0DPI1 2-448 limits assumed): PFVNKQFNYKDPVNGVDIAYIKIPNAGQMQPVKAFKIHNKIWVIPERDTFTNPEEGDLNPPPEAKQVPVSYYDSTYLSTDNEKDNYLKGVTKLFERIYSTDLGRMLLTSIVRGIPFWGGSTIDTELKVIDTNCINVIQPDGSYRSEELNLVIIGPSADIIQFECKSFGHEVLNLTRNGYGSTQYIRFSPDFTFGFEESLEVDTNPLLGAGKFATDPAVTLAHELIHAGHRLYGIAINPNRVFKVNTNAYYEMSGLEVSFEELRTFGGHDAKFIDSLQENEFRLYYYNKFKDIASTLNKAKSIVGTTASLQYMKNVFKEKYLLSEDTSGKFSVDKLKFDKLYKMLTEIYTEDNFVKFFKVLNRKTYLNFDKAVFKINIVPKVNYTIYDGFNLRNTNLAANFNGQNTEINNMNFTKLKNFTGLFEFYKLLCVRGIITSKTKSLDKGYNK
Sequence of Wee1-like protein kinase (P30291 whole entry): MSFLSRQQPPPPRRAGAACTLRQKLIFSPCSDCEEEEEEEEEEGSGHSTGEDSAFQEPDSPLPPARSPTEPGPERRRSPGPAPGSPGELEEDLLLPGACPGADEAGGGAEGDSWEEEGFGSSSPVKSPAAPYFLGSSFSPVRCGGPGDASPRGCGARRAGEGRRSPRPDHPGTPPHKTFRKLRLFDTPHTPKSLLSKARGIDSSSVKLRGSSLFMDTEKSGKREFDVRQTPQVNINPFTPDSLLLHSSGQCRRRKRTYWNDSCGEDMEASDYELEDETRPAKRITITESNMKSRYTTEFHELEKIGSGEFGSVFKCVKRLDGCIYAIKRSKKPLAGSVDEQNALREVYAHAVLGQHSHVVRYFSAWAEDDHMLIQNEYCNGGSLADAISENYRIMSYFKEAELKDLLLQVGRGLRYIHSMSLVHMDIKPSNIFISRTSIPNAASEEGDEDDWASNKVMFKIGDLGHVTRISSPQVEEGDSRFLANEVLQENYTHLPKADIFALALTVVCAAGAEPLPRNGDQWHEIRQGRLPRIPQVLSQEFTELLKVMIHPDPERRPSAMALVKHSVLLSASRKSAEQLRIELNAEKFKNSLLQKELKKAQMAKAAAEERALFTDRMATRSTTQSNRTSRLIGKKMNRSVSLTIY
Sequence of ORF 73 (O40947 whole entry): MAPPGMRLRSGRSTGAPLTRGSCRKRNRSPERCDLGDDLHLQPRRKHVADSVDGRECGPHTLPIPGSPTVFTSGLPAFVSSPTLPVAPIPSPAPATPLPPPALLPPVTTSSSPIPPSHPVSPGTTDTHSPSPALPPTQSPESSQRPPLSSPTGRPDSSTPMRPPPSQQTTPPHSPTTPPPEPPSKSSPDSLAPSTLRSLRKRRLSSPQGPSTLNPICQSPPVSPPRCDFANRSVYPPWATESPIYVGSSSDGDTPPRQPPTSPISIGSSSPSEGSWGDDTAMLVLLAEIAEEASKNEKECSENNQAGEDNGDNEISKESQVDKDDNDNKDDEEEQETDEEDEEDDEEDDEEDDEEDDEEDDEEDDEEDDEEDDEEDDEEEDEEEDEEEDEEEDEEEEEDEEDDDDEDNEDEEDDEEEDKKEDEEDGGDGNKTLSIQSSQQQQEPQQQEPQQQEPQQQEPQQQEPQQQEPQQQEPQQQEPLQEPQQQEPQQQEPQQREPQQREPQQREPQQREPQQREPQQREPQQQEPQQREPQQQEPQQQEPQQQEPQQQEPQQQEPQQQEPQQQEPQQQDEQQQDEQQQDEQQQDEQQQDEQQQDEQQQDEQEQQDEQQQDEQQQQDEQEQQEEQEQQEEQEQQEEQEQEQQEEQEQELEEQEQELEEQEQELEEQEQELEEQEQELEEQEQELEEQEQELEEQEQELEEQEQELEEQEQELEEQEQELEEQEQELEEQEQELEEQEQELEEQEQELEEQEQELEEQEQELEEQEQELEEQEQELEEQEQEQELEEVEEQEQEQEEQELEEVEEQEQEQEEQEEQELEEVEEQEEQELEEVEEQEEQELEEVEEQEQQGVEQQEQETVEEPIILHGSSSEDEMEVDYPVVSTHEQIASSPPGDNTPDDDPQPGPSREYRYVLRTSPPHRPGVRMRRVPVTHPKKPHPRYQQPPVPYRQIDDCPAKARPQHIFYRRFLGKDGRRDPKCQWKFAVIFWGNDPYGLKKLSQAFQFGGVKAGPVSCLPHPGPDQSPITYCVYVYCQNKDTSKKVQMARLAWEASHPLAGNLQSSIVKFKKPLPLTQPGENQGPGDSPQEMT
Sequence of Lethal factor (P15917 whole entry): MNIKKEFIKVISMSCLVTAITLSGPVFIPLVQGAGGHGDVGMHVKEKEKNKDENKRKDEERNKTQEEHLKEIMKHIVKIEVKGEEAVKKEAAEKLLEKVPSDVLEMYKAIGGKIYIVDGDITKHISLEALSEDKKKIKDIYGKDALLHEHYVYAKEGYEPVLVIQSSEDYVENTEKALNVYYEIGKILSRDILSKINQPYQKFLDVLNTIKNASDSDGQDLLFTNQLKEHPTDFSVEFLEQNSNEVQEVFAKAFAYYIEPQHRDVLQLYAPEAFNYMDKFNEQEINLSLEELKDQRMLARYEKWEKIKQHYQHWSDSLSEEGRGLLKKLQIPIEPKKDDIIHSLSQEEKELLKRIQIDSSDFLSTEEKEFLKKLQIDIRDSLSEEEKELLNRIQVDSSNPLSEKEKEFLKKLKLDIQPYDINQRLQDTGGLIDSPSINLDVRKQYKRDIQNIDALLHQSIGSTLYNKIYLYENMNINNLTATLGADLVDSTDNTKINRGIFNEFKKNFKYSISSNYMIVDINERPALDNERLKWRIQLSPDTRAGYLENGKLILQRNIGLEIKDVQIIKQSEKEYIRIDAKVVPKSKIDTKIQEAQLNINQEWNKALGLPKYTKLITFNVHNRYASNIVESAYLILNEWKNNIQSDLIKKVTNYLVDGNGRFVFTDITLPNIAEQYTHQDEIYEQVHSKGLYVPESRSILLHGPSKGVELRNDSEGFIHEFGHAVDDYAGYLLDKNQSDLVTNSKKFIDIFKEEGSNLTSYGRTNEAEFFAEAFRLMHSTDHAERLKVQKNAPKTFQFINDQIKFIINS
Sequence of Ephrin type-A receptor 4 (Q03137 whole entry): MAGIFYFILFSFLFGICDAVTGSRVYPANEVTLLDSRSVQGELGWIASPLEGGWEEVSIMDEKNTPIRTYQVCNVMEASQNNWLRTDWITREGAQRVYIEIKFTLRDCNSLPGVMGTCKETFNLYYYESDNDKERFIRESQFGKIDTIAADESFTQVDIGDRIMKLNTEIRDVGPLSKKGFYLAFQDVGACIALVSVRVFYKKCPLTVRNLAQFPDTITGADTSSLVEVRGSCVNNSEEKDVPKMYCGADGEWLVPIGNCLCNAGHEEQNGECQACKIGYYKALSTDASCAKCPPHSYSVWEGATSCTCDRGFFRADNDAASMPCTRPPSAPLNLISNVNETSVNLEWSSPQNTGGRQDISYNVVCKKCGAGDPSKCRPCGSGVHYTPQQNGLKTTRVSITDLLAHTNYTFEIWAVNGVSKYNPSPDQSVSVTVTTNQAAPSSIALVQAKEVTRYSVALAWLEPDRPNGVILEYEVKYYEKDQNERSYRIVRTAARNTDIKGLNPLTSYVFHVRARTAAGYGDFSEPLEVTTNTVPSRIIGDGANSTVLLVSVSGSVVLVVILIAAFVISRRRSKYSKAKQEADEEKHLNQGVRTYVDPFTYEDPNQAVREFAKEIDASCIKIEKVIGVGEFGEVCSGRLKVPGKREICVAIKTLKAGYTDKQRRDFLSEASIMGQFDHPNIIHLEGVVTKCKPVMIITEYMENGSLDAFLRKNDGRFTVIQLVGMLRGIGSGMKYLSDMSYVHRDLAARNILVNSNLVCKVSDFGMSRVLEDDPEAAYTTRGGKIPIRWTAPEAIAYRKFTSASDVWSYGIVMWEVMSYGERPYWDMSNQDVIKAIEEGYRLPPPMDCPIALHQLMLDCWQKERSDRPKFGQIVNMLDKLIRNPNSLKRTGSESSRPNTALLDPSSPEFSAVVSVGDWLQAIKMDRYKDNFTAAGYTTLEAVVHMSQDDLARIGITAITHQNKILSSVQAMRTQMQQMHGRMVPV
Sequence of Botulinum neurotoxin type F (P30996 1-436 limits assumed): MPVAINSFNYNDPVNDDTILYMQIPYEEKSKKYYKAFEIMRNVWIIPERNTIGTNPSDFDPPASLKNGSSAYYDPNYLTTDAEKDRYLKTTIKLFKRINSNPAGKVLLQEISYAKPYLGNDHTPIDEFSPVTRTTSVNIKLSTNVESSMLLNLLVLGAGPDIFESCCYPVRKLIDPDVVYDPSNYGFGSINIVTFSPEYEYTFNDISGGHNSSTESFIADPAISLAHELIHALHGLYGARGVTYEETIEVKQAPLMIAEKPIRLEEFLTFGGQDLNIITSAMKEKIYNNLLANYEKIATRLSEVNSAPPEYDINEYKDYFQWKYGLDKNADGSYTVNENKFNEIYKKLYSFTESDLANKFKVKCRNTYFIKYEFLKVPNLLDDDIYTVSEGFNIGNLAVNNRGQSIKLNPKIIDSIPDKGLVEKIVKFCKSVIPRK

As for `c1ccc(-c2cn3nc(-c4ccccc4)c(-c4ccccc4)nc3n2)cc1`, the EC50 in [1] is 2.82 µM (active); in assay [2], 3.84 µM (active); in [5] it was 5.8 µM (active); in assay [6], 0.6 µM (active); in assay [7], 5.3 µM (active); in assay [8], 1.6 µM (active). The IC50 in assay [3] was 1.2 µM (active). Further, in assay [4], the AC50 was 47.3 µM (active).
With `O=C(Nc1cccc(-c2cccc(F)c2)c1)C1CCN(C2CCC2)CC1`, in assay [9], the IC50 was > 100 µM (inactive). Moreover, the EC50 in assay [10] is > 100 µM (inactive).
`Cc1ccc(Nc2cc(C)nn2-c2nc(C)cc(O)n2)cc1`: the EC50 in assay [11] and in assay [12] was > 55.7 µM (inactive) throughout.
With `O=C(NCCN1CCCCC1)c1cc(-c2ccco2)nc2ccccc12`, the IC50 in [13] is > 56.8 µM (inactive).
